Source: patent publication US20250011285A1, “CYP11A1 INHIBITORS” (ORION CORPORATION, priority 2021, published 2025)

Target: T1, CYP11A1 (Homo sapiens, UniProt P05108)
T1 construct: human H295R adrenocortical carcinoma cell line was used as source of enzyme; endogenous in cells; host or cells: H295R human adrenocortical carcinoma cells
T1 sequence (P05108 40-521): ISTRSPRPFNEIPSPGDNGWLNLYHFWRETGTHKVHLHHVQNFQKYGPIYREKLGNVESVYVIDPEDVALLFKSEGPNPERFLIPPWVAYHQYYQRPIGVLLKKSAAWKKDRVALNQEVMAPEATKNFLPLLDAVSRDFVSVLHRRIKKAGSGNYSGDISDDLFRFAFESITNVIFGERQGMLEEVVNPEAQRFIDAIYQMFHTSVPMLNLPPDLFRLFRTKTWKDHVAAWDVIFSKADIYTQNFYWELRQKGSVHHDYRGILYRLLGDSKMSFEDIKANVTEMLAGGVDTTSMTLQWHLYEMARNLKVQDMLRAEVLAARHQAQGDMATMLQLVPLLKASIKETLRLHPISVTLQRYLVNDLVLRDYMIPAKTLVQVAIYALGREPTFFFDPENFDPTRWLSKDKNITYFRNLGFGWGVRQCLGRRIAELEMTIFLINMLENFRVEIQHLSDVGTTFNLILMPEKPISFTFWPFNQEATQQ
Assay: CYP11A1 inhibition, isocaproic acid release assay (IARA) in H295R cells
Format: cell-based
Settings: human H295R adrenocortical carcinoma cells treated three days, 3 nM [24,25-3H]-labelled cholesterol, 1% DMSO; read-out: IC50 on CYP11A1 inhibition (Group)
Protocol: The ability of the test compounds to inhibit conversion of cholesterol to pregnenolone and isocaproic acid was measured by modification of isocaproic acid release assay (IARA) described by Ruangwises et al. (Biology of Reproduction 1991; 45(1):143-50) except that human H295R adrenocortical carcinoma cell line was used as source of enzyme and extraction was done with dextran-coated charcoal suspension (Isomaa, V. et al., Endocrinology 1982; 111(3):833-843). […] To determine the half maximal inhibitory concentration (IC50) of the test compounds on CYP11A1 inhibition, the cells were treated for three days with increasing concentrations of the test compounds in the presence of 3 nM [24,25-3H]-labelled cholesterol (American Radiolabelled Chemicals).
The final DMSO concentration was 1%. Cell culture medium was extracted with dextran-coated charcoal suspension and the radiolabelled isocaproic acid was determined by mixing 100 μl of supernatant fraction in 200 μl of scintillation fluid (OptiPhase SuperMix, Perkin Elmer). Radioactivity was measured using a Microbeta scintillation counter (1450 MicroBeta Trilux, Wallac). All the test compounds were studied at 10 concentrations in duplicates.

How did the IC50 turn out when `COC(=O)c1ccc(COc2ccc(CN3Cc4ccccc4C3)cc2OC)cc1` [Compound 1, Methyl 4-((4-(isoindolin-2-ylmethyl)-2-methoxyphenoxy)methyl) benzoate] was run?
Its IC50 is 351 to 1500 nM.

With `COC(=O)c1ccc(COc2ccc(CN3Cc4ccccc4C3)cc2)cc1` [Compound 2, Methyl 4-((4-(isoindolin-2-ylmethyl)phenoxy)methyl)benzoate] as the compound, how does the IC50 read?
Its IC50 is 351 to 1500 nM.

With `COc1cc(CN2Cc3ccccc3C2)ccc1OCc1ccc(C(=O)N(C)C)cc1` [Compound 3, 4-((4-(Isoindolin-2-ylmethyl)-2-methoxyphenoxy)methyl)-N,N-dimethyl-benzamide] as the compound, how does the IC50 read?
Its IC50 is under 150 nM.

With `CN(C)C(=O)c1ccc(COc2ccc(CN3Cc4ccccc4C3)cc2Cl)cc1` [Compound 4, 4-((2-Chloro-4-(isoindolin-2-ylmethyl)phenoxy)methyl)-N,N-dimethyl-benzamide] as the compound, how does the IC50 read?
The IC50 was 151 to 350 nM.

Which IC50 does the source give for `CN(C)C(=O)c1ccc(COc2ccc(CN3Cc4ccccc4C3)cc2O)cc1` [Compound 5, 4-((2-Hydroxy-4-(isoindolin-2-ylmethyl)phenoxy)methyl)-N,N-dimethyl-benzamide] here?
The IC50 was 151 to 350 nM.

`CN(C)C(=O)c1ccc(COc2ccc(CN3Cc4ccccc4C3)cc2C#N)cc1` [Compound 6, 4-((2-Cyano-4-(isoindolin-2-ylmethyl)phenoxy)methyl)-N,N-dimethylbenzamide] was tested. Which IC50 did it give?
Its IC50 is under 150 nM.

For `COC(=O)c1cc(CN2Cc3ccccc3C2)ccc1OCc1ccc(C(=O)N(C)C)cc1` [Compound 7, Methyl 2-((4-(dimethylcarbamoyl)benzyl)oxy)-5-(isoindolin-2-ylmethyl)-benzoate], which IC50 is on record?
Its IC50 is 151 to 350 nM.

Which IC50 does the source give for `CCOc1cc(CN2Cc3ccccc3C2)ccc1OCc1ccc(C(=O)N(C)C)cc1` [Compound 8, 4-((2-Ethoxy-4-(isoindolin-2-ylmethyl)phenoxy)methyl)-N,N-dimethyl-benzamide] here?
Its IC50 is 151 to 350 nM.

`COC(=O)/C=C/c1ccc(COc2ccc(CN3Cc4ccccc4C3)cc2OC)cc1` [Compound 9, Methyl (E)-3-(4-((4-(isoindolin-2-ylmethyl)-2-methoxyphenoxy)methyl)phenyl)acrylate] was tested. Which IC50 did it give?
Its IC50 is 351 to 1500 nM.

For `COCc1cc(CN2Cc3ccccc3C2)ccc1OCc1ccc(C(=O)N(C)C)cc1` [Compound 10, 4-((4-(Isoindolin-2-ylmethyl)-2-(methoxymethyl)phenoxy)methyl)-N,N-di-methylbenzamide], which IC50 is on record?
The IC50 was 151 to 350 nM.

With `CN(C)C(=O)c1ccc(COc2ccc(CN3Cc4ccccc4C3)cc2OCC(F)(F)F)cc1` [Compound 11, 4-((4-(Isoindolin-2-ylmethyl)-2-(2,2,2-trifluoroethoxy)phenoxy)methyl)-N,N-dimethylbenzamide] as the compound, how does the IC50 read?
Its IC50 is 151 to 350 nM.

Which IC50 does the source give for `COc1cc(CN2Cc3ccccc3C2)ccc1OCc1ccc(S(C)(=O)=O)cc1` [Compound 12, 2-(3-Methoxy-4-((4-(methylsulfonyl)benzyl)oxy)benzyl)isoindoline] here?
The IC50 was under 150 nM.

How did the IC50 turn out when `COCCNS(=O)(=O)c1ccc(COc2ccc(CN3Cc4ccccc4C3)cc2OC)cc1` [Compound 13, 4-((4-(Isoindolin-2-ylmethyl)-2-methoxyphenoxy)methyl)-N-(2-methoxyethyl)-benzenesulfonamide] was run?
Its IC50 is under 150 nM.

How did the IC50 turn out when `CN(C)C(=O)c1ccc(COc2ccc(CN3Cc4ccccc4C3)cc2OCC(N)=O)cc1` [Compound 14, 4-((2-(2-Amino-2-oxoethoxy)-4-(isoindolin-2-ylmethyl)phenoxy)methyl)-N,N-dimethylbenzamide] was run?
The IC50 was under 150 nM.

Which IC50 does the source give for `C=CCc1cc(CN2Cc3ccccc3C2)ccc1OCc1ccc(C(=O)N(C)C)cc1` [Compound 15, 4-((2-Allyl-4-(isoindolin-2-ylmethyl)phenoxy)methyl)-N,N-dimethylbenzamide] here?
The IC50 was 151 to 350 nM.

With `CS(=O)(=O)c1ccc(COc2ccc(CN3Cc4ccccc4C3)cc2C#N)cc1` [Compound 16, 5-(Isoindolin-2-ylmethyl)-2-((4-(methylsulfonyl)benzyl)oxy)benzonitrile] as the compound, how does the IC50 read?
Its IC50 is 151 to 350 nM.

For `CN(C)C(=O)c1cc(CN2Cc3ccccc3C2)ccc1OCc1ccc(S(C)(=O)=O)cc1` [Compound 17, 5-(Isoindolin-2-ylmethyl)-N,N-dimethyl-2-((4-(methylsulfonyl)benzyl)oxy)-benzamide], which IC50 is on record?
Its IC50 is 351 to 1500 nM.

For `COCc1cc(CN2Cc3ccccc3C2)ccc1OCc1ccc(S(C)(=O)=O)cc1` [Compound 18, 2-(3-(Methoxymethyl)-4-((4-(methylsulfonyl)benzyl)oxy)benzyl)isoindoline], which IC50 is on record?
The IC50 was 151 to 350 nM.

`CS(=O)(=O)N1CCC(COc2ccc(CN3Cc4ccccc4C3)cc2C#N)CC1` [Compound 19, 5-(Isoindolin-2-ylmethyl)-2-((1-(methylsulfonyl)piperidin-4-yl)methoxy)-benzonitrile] was tested. Which IC50 did it give?
The IC50 was under 150 nM.

`COCCS(=O)(=O)c1ccc(COc2ccc(CN3Cc4ccccc4C3)cc2COC)cc1` [Compound 20, 2-(4-((4-((2-Methoxyethyl)sulfonyl)benzyl)oxy)-3-(methoxymethyl)benzyl)-isoindoline] was tested. Which IC50 did it give?
Its IC50 is under 150 nM.

With `COc1c(OCc2ccc(S(C)(=O)=O)cc2)ccc(CN2Cc3ccccc3C2)c1F` [Compound 21, 2-(2-Fluoro-3-methoxy-4-((4-(methylsulfonyl)benzyl)oxy)benzyl)isoindoline] as the compound, how does the IC50 read?
The IC50 was under 150 nM.

How did the IC50 turn out when `COCc1cc(CN2Cc3ccccc3C2)ccc1OCC1CCN(S(C)(=O)=O)CC1` [Compound 22, 2-(3-(Methoxymethyl)-4-((1-(methylsulfonyl)piperidin-4-yl)methoxy)benzyl)-isoindoline] was run?
The IC50 was under 150 nM.

How did the IC50 turn out when `COc1c(OCC2CCN(C(=O)NC(C)C)CC2)ccc(CN2Cc3ccccc3C2)c1[N+](=O)[O-]` [Compound 23, 4-((4-(Isoindolin-2-ylmethyl)-2-methoxy-3-nitrophenoxy)methyl)-N-isopropyl-piperidine-1-carboxamide] was run?
Its IC50 is 351 to 1500 nM.

For `CN(C)C(=O)c1ccc(COc2ccc(CN3Cc4ccccc4C3)c(F)c2)cc1` [Compound 24, 4-((3-Fluoro-4-(isoindolin-2-ylmethyl)phenoxy)methyl)-N,N-dimethylbenzamide], which IC50 is on record?
Its IC50 is 351 to 1500 nM.

Which IC50 does the source give for `CN(C)C(=O)c1ccc(COc2cc(F)c(CN3Cc4ccccc4C3)c(F)c2)cc1` [Compound 25, 4-((3,5-Difluoro-4-(isoindolin-2-ylmethyl)phenoxy)methyl)-N,N-dimethyl-benzamide] here?
Its IC50 is 151 to 350 nM.

How did the IC50 turn out when `CN(C)C(=O)c1ccc(COc2cc(F)c(CN3Cc4ccccc4C3)cc2F)cc1` [Compound 26, 4-((2,5-Difluoro-4-(isoindolin-2-ylmethyl)phenoxy)methyl)-N,N-dimethyl-benzamide] was run?
The IC50 was under 150 nM.

For `CN(C)C(=O)c1ccc(COc2ccc(CN3Cc4ccccc4C3)c(F)c2F)cc1` [Compound 27, 4-((2,3-Difluoro-4-(isoindolin-2-ylmethyl)phenoxy)methyl)-N,N-dimethyl-benzamide], which IC50 is on record?
The IC50 was 351 to 1500 nM.

For `COc1cc(CN2Cc3ccccc3C2)cc(F)c1OCc1ccc(C(=O)N(C)C)cc1` [Compound 28, 4-((2-Fluoro-4-(isoindolin-2-ylmethyl)-6-methoxyphenoxy)methyl)-N,N-di-methylbenzamide], which IC50 is on record?
Its IC50 is 351 to 1500 nM.

With `CN(C)C(=O)c1ccc(COc2ccc(CN3Cc4ccccc4C3)cc2OC(F)(F)F)cc1` [Compound 29, 4-((4-(Isoindolin-2-ylmethyl)-2-(trifluoromethoxy)phenoxy)methyl)-N,N-dimethylbenzamide] as the compound, how does the IC50 read?
Its IC50 is 351 to 1500 nM.

For `CN(C)C(=O)c1ccc(COc2ccc(CN3Cc4ccccc4C3=O)cc2OC(F)(F)F)cc1` [Compound 30, N,N-Dimethyl-4-((4-((1-oxoisoindolin-2-yl)methyl)-2-(trifluoromethoxy)-phenoxy)methyl)benzamide], which IC50 is on record?
Its IC50 is 351 to 1500 nM.

For `COc1cc(OCc2ccc(C(=O)N(C)C)cc2)ccc1CN1Cc2ccccc2C1` [Compound 31, 4-((4-(Isoindolin-2-ylmethyl)-3-methoxyphenoxy)methyl)-N,N-dimethyl-benzamide], which IC50 is on record?
Its IC50 is 351 to 1500 nM.

For `COc1cc(CN2Cc3ccc(S(C)(=O)=O)cc3C2)ccc1OCc1ccc(C(=O)N(C)C)cc1` [Compound 32, 4-((2-Methoxy-4-((5-(methylsulfonyl)isoindolin-2-yl)methyl)phenoxy)methyl)-N,N-dimethylbenzamide], which IC50 is on record?
The IC50 was 351 to 1500 nM.

For `CS(=N)(=O)c1ccc(COc2ccc(CN3Cc4ccccc4C3)cc2C#N)cc1` (centres unmarked) [Compound 33, 5-(isoindolin-2-ylmethyl)-2-((4-(S-methylsulfonimidoyl)benzyl)oxy)benzonitrile], which IC50 is on record?
Its IC50 is under 150 nM.

Which IC50 does the source give for `COc1cc(CN2Cc3ccc(SC)cc3C2)ccc1OCc1ccc(C(=O)N(C)C)cc1` [Compound 34, 4-((2-Methoxy-4-((5-(methylthio)isoindolin-2-yl)methyl)phenoxy)methyl)-N,N-dimethylbenzamide] here?
The IC50 was under 150 nM.

With `COCCN(C)C(=O)c1ccc(COc2ccc(CN3Cc4ccccc4C3)cc2OC)cc1` [Compound 35, 4-((4-(Isoindolin-2-ylmethyl)-2-methoxyphenoxy)methyl)-N-(2-methoxyethyl)-N-methylbenzamide] as the compound, how does the IC50 read?
The IC50 was under 150 nM.
